Assay results reported in ChEMBL document CHEMBL1201862, “PubChem BioAssay data set” (2004).
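Tested at 5 concentrations; 48 h exposure; 96-well plates; endpoints linearly interpolated, else capped at highest concentration. GI50 is the concentration that inhibits growth by half.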 Calls of active or inactive are those of the source. Cut-off read from the data, not from the text of the source: active = GI50 up to about 1.1 µM and inactive = higher.

Columns and labels:
Assay in all cases: NCI tumour cell line growth inhibition, 48 h
M19-MEL = system: M19-MEL
HOP-18 = system: HOP-18
HT-29 = system: HT-29
K562 = system: K562
SNB-75 = system: SNB-75
SK-OV-3 = system: SK-OV-3
HOP-62 = system: HOP-62
SNB-78 = system: SNB-78
ACHN = system: ACHN
SF-539 = system: SF-539
DMS-273 = system: DMS-273
DLD-1 = system: DLD-1
NCI-H23 = system: NCI-H23
OVCAR-3 = system: OVCAR-3
TK-10 = system: TK-10
KM12 = system: KM12
LOX IMVI = system: LOX IMVI
M14 = system: M14
OVCAR-5 = system: OVCAR-5
HCT-116 = system: HCT-116
COLO 205 = system: COLO 205
SNB-19 = system: SNB-19
HCC 2998 = system: HCC 2998
LXFL 529 = system: LXFL 529
RPMI-8226 = system: RPMI-8226
XF498 = system: XF498
SW-620 = system: SW-620
NCI-H460 = system: NCI-H460
SF-295 = system: SF-295
786-0 = system: 786-0
CCRF-CEM = system: CCRF-CEM
U-251 = system: U-251
OVCAR-8 = system: OVCAR-8
A498 = system: A498
HCT-15 = system: HCT-15
A549 = system: A549
UACC-62 = system: UACC-62
UO-31 = system: UO-31
EKVX = system: EKVX
SF-268 = system: SF-268
RXF 393 = system: RXF 393
OVCAR-4 = system: OVCAR-4
SK-MEL-28 = system: SK-MEL-28
SK-MEL-5 = system: SK-MEL-5
Malme-3M = system: Malme-3M
MOLT-4 = system: MOLT-4
RXF 631 = system: RXF 631
UACC-257 = system: UACC-257
SN12C = system: SN12C
KM-20L2 = system: KM-20L2
CAKI-1 = system: CAKI-1
SK-MEL-2 = system: SK-MEL-2
DMS-114 = system: DMS-114
IGROV-1 = system: IGROV-1

O=c1c2ccccc2oc2nccnc12
GI50 (M19-MEL): > 100 µM (inactive) | GI50 (HOP-18): > 100 µM (inactive) | GI50 (HT-29): > 100 µM (inactive) | GI50 (K562): > 100 µM (inactive) | GI50 (SNB-75): > 100 µM (inactive) | GI50 (SK-OV-3): > 100 µM (inactive) | GI50 (HOP-62): > 100 µM (inactive) | GI50 (SNB-78): > 100 µM (inactive) | GI50 (ACHN): > 100 µM (inactive) | GI50 (SF-539): > 100 µM (inactive) | GI50 (DMS-273): > 100 µM (inactive) | GI50 (DLD-1): > 100 µM (inactive) | GI50 (NCI-H23): > 100 µM (inactive) | GI50 (OVCAR-3): > 100 µM (inactive) | GI50 (TK-10): > 100 µM (inactive) | GI50 (KM12): > 100 µM (inactive) | GI50 (LOX IMVI): > 100 µM (inactive) | GI50 (M14): > 100 µM (inactive) | GI50 (OVCAR-5): > 100 µM (inactive) | GI50 (HCT-116): > 100 µM (inactive) | GI50 (COLO 205): > 100 µM (inactive) | GI50 (SNB-19): > 100 µM (inactive) | GI50 (HCC 2998): > 100 µM (inactive) | GI50 (LXFL 529): > 100 µM (inactive) | GI50 (RPMI-8226): > 100 µM (inactive) | GI50 (XF498): > 100 µM (inactive) | GI50 (SW-620): > 100 µM (inactive) | GI50 (NCI-H460): > 100 µM (inactive) | GI50 (SF-295): > 100 µM (inactive) | GI50 (786-0): > 100 µM (inactive) | GI50 (CCRF-CEM): > 100 µM (inactive) | GI50 (U-251): > 100 µM (inactive) | GI50 (OVCAR-8): > 100 µM (inactive) | GI50 (A498): > 100 µM (inactive) | GI50 (HCT-15): > 100 µM | GI50 (A549): > 100 µM (inactive) | GI50 (UACC-62): > 100 µM (inactive) | GI50 (UO-31): > 100 µM (inactive) | GI50 (EKVX): > 100 µM (inactive) | GI50 (SF-268): > 100 µM (inactive) | GI50 (RXF 393): > 100 µM (inactive) | GI50 (OVCAR-4): > 100 µM (inactive) | GI50 (SK-MEL-28): > 100 µM (inactive) | GI50 (SK-MEL-5): > 100 µM (inactive) | GI50 (Malme-3M): > 100 µM (inactive) | GI50 (MOLT-4): > 100 µM (inactive) | GI50 (RXF 631): > 100 µM (inactive) | GI50 (UACC-257): > 100 µM (inactive) | GI50 (SN12C): > 100 µM (inactive) | GI50 (KM-20L2): > 100 µM (inactive) | GI50 (CAKI-1): > 100 µM (inactive) | GI50 (SK-MEL-2): > 100 µM (inactive) | GI50 (DMS-114): > 100 µM (inactive) | GI50 (IGROV-1): > 100 µM (inactive)
